These are literature values, as cited in patent US10183028B2, “Enrichment method of ergosterol peroxide from sporoderm-broken Ganoderma lucidum spore powder” (Guangzhou Polysarm Bioscience Corp., priority 2015, dated 2019).

For data set [1], the system named is prodenia litura. Particulars: Chinese application 01817014.5.
In data set [2] the test system is brain tumor cells (U87). Particulars: Chinese application 201210233192.1.
Data set [3] deals with formation of melanin. Particulars: Chinese application 01817014.5.
The subject of data set [4] is aphid. Particulars: Chinese application 01817014.5.
The subject of data set [5] is pieris rapae. Particulars: Chinese application 01817014.5.
For data set [6], the system named is Hela cancer cells. As to conditions: Chinese application 201410311586.3.
For data set [7], the system named is human breast cancer and liver cancer. Particulars: Chinese application 200610126091.9.
Data set [8] deals with malignant breast cancer cells (MT-1). As to conditions: Chinese application 201210233192.1.
Data set [9] concerns lymphoma cancer cells (Jurkat). As to conditions: Chinese application 201210233192.1.
For data set [10], the system named is fungal. Particulars: Chinese application 200810119948.3.
The test system of data set [11] is drug-resistant brain tumor stem cells. Particulars: Chinese application 201210233192.1.

As to `CC(C)[C@@H](C)C=C[C@@H](C)[C@H]1CC[C@@H]2[C@]1(C)CC[C@H]1[C@]23C=C[C@]2(C[C@@H](O)CC[C@]12C)OO3` [Ergosterol peroxide, 5α,8α-Epidioxyergosta-6,22-dien-3β-ol], the “poisoning effects on agricultural pests” value in [1], in data set [4] and in data set [5] was “poisoning effects” in each case. Further, the “inhibitory effect on brain tumor cells (U87)” value in [2] is “significant inhibitory effect”. Besides, in data set [3], the “inhibitory effects on the formation of melanin” value is listed as “strong inhibitory effects”. Also, the “synergy with taxol in killing or damaging Hela cancer cells” value in data set [6] is on record as “synergy with taxol”. Moreover, the “harmful effects on immune organs and weight” value in data set [7] was “no harmful effects”. Besides, the anti-tumor pharmacological activity result in data set [7] (human breast cancer and liver cancer) is “significant anti-tumor”. For the same molecule, the “inhibitory effect on malignant breast cancer cells (MT-1)” value in [8] is reported as “significant inhibitory effect”. Further, the “inhibitory effect on lymphoma cancer cells (Jurkat)” value in data set [9] is recorded as “significant inhibitory effect”. Further, the antifungal bioactivity result in [10] is reported as “remarkable antifungal bioactivity”. In addition, the “killing of drug-resistant brain tumor stem cells” value in [11] is “kills”.
